Test: xn = mol fraction of the nth substance listed
Conditions: 101 kPa

CC[N+](CC)(CC)CC.[Cl-] + CC(=O)CCC(=O)O
x1 = 0.25
Conditions	electrical conductivity [S/m]	viscosity [mPa·s]
293.15 K	0.075	130.1
298.15 K	0.105	–
303.15 K	0.138	69.8
308.15 K	0.172	–
313.15 K	0.215	39.1
318.15 K	0.265	–
323.15 K	0.318	27.1
328.15 K	0.373	–
333.15 K	0.453	18.71
338.15 K	0.524	–
343.15 K	0.587	–

CC(=O)CCC(=O)O + CCCC[N+](CCCC)(CCCC)CCCC.[Cl-]
x1 = 0.75
Conditions	electrical conductivity [S/m]	viscosity [mPa·s]
293.15 K	0.035	121.7
298.15 K	0.045	–
303.15 K	0.06	65.6
308.15 K	0.072	–
313.15 K	0.089	36.7
318.15 K	0.113	–
323.15 K	0.129	25.5
328.15 K	0.151	–
338.15 K	0.213	–

— a compilation of properties of binary mixtures (doi:10.1016/j.molliq.2016.07.039)
